The text below walks through data of paper PMC6437697 (Journal of Medicinal Chemistry, 2019).

What all share (assay): KINOMEscan
Common to all, as to format: binding
Holding throughout (conditions): read-out: % control activity remaining

One assay addresses T1, MARK4 (Homo sapiens, UniProt Q96L34).
T1 construct: purchased Eurofins DiscoverX KINOMEscan
T1 sequence (Q96L34 1-752): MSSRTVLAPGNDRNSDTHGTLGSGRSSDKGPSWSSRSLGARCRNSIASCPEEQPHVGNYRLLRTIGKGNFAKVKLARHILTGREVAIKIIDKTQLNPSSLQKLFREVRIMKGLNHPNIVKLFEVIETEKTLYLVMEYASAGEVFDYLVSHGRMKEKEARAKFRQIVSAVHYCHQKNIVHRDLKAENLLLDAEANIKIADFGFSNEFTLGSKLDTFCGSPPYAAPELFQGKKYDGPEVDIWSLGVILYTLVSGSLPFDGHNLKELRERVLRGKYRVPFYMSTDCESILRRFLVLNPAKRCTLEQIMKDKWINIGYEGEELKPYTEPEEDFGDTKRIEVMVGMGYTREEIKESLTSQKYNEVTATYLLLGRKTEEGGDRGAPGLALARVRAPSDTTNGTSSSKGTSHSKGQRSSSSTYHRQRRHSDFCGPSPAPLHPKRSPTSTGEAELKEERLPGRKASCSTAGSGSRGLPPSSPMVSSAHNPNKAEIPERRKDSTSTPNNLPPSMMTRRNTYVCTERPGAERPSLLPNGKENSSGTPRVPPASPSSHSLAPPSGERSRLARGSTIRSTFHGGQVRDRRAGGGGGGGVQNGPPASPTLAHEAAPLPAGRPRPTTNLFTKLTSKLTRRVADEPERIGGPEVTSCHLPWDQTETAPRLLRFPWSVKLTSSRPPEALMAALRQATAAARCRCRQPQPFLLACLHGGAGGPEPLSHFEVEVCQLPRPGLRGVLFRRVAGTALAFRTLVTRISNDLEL

In assay [1] the target is T2, ABL1(F317I)-nonphosphorylated (Homo sapiens, UniProt P00519, F317I).
T2 construct: purchased Eurofins DiscoverX KINOMEscan

Another assay addresses T3, PHKG1 (Homo sapiens, UniProt Q16816).
T3 construct: purchased Eurofins DiscoverX KINOMEscan

The next assay deals with T4, TGFBR1 (Homo sapiens, UniProt P36897).
T4 construct: purchased Eurofins DiscoverX KINOMEscan
T4 sequence (P36897 34-503): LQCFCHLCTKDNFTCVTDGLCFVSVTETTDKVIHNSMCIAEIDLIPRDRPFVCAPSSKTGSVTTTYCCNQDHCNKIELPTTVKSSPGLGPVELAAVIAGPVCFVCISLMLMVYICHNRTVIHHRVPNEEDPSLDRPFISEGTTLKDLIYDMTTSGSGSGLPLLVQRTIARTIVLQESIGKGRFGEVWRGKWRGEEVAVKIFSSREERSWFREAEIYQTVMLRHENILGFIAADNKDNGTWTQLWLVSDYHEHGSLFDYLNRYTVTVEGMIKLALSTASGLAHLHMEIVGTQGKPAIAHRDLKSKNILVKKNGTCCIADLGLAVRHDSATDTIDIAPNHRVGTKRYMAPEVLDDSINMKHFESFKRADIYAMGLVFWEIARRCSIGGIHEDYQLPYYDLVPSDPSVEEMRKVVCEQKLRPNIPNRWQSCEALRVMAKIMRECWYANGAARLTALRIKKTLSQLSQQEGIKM

A further assay concerns the target T5, PIK3CG (Homo sapiens, UniProt P48736).
T5 construct: purchased Eurofins DiscoverX KINOMEscan

The target in the next assay is T6, GRK4 (Homo sapiens, UniProt P32298).
T6 construct: purchased Eurofins DiscoverX KINOMEscan

Another assay deals with T7, TEC (Homo sapiens, UniProt P42680).
T7 construct: purchased Eurofins DiscoverX KINOMEscan
T7 sequence (P42680 1-631): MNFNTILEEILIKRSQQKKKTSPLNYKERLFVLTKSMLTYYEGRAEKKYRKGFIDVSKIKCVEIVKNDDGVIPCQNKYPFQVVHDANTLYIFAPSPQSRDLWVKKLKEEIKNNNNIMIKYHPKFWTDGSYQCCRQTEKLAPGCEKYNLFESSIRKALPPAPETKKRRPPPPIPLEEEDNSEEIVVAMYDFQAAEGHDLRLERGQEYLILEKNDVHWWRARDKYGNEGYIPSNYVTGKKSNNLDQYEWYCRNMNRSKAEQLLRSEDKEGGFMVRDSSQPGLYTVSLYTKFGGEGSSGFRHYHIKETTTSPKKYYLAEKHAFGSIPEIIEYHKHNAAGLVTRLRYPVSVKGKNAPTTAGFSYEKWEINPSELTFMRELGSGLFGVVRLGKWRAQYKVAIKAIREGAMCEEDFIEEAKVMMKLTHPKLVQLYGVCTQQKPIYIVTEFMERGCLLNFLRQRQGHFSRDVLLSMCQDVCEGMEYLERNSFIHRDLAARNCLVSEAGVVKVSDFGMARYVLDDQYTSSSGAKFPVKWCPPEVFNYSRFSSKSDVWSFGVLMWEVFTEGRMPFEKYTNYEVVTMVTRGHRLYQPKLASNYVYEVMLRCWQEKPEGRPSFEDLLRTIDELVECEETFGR

A further assay deals with T8, SRPK2 (Homo sapiens, UniProt P78362).
T8 construct: purchased Eurofins DiscoverX KINOMEscan
T8 sequence (P78362 whole entry): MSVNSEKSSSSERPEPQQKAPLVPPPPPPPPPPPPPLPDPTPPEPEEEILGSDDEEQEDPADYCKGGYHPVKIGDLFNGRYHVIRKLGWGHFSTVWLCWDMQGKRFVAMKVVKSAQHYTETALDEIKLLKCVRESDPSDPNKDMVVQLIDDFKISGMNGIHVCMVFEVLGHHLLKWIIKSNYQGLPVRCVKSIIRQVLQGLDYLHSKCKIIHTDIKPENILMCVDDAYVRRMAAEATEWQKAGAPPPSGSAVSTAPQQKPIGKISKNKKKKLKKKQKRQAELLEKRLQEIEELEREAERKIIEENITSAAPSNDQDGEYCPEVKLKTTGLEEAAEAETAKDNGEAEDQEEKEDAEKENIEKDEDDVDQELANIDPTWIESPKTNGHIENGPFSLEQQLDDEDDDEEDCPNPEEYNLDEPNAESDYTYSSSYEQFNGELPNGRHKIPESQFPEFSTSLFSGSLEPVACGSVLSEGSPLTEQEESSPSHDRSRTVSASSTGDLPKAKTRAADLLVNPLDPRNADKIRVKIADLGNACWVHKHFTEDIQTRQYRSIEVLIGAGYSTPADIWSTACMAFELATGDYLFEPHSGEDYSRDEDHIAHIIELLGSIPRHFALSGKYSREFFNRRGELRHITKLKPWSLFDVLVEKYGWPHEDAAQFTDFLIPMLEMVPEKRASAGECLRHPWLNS

T5 sequence (P48736 whole entry): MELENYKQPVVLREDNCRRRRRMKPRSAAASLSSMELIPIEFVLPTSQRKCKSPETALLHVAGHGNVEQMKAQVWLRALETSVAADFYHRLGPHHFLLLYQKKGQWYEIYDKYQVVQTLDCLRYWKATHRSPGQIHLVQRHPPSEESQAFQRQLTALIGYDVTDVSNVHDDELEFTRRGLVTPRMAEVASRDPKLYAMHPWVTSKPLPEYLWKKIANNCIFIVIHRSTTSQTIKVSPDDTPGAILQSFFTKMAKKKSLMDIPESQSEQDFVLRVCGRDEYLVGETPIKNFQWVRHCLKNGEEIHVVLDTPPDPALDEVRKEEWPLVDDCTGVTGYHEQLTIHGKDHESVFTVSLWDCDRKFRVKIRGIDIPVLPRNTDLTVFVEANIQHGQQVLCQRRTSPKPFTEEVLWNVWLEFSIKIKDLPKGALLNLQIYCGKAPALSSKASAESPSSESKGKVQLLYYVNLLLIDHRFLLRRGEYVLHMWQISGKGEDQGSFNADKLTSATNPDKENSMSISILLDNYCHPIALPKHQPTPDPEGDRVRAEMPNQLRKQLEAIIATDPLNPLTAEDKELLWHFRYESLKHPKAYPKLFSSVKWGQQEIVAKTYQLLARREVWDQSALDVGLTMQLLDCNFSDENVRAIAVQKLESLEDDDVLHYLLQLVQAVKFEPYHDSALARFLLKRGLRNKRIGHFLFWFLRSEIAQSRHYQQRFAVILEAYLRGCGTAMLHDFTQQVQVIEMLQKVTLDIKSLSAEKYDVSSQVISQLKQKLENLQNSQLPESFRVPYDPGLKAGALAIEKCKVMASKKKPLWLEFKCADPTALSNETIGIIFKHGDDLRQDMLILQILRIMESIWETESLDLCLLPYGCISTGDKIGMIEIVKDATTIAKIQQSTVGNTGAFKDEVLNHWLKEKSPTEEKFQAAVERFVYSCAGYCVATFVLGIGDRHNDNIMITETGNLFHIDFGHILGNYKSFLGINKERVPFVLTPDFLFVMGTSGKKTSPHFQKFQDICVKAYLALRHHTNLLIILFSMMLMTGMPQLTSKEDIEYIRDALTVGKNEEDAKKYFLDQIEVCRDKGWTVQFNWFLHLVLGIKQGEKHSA
T3 sequence (Q16816 whole entry): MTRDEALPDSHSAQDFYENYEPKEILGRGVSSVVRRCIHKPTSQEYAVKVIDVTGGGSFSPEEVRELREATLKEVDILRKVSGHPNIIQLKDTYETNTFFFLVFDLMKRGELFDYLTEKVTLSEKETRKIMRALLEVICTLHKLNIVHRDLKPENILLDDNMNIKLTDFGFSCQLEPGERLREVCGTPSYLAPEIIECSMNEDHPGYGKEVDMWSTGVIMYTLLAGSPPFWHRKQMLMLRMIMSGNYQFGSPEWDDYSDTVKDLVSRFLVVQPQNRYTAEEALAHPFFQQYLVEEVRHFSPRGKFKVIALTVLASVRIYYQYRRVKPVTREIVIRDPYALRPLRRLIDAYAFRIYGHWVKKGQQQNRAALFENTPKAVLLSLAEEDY
T6 sequence (P32298 whole entry): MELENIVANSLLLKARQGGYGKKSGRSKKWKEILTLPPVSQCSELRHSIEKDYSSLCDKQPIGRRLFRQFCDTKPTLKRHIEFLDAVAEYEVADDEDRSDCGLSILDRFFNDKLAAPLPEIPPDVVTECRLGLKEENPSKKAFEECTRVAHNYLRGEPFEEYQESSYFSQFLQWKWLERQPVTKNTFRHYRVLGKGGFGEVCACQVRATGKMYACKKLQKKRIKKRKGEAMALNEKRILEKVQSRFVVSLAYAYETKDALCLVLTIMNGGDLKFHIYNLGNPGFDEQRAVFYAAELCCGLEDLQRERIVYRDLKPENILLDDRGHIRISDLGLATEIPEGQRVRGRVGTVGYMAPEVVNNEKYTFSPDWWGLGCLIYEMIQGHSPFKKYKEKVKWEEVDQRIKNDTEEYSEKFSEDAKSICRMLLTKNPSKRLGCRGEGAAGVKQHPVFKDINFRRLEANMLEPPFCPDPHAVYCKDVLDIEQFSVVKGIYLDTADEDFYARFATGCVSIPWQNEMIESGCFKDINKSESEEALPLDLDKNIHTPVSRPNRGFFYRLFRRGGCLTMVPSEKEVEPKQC
T2 sequence (P00519 whole entry F317I): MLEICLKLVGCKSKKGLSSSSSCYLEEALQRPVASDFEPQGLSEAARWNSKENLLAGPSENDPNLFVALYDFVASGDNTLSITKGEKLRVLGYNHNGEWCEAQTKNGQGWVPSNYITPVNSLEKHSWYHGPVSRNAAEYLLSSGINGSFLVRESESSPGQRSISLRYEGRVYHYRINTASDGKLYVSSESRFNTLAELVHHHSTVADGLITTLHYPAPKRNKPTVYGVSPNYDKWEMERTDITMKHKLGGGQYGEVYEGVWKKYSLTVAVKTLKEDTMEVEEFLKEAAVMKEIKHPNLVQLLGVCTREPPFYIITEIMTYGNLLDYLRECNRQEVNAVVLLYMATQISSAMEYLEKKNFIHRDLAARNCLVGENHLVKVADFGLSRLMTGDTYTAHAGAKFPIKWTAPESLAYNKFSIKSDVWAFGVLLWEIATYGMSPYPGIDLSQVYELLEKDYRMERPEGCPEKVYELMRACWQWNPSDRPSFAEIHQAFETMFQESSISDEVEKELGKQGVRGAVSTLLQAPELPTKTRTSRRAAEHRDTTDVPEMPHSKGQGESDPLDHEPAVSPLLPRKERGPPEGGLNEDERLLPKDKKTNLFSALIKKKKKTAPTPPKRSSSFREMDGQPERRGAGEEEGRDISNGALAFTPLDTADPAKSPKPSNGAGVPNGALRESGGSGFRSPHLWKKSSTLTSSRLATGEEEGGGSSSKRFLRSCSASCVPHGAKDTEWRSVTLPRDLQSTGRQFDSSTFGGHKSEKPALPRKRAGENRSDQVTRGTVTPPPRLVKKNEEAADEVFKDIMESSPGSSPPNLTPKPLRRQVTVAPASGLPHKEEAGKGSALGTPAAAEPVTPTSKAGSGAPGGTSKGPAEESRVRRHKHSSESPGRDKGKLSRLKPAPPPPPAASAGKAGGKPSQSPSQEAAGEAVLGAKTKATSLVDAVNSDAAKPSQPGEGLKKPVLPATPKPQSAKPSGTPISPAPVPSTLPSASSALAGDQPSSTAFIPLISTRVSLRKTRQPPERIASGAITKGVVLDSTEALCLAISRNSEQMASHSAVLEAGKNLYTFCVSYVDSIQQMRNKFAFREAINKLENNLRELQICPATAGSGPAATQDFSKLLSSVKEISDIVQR

On to `Clc1cc(NCC2CC2)c2ncc(-c3ccc4[nH]ncc4c3)n2n1` [compound 2, 6-Chloro-N-(cyclopropylmethyl)-3-(1H-indazol-5-yl)imidazo[1,2-b]pyridazin-8-amine], for which the remaining binding at 1 µM on MARK4 was determined as 92%; in assay [1], 71%; at PHKG1, 91%; on TGFBR1, 100%; at PIK3CG, 78%; at GRK4, 42%. The remaining binding at 1 µM on TEC was found to be 100%; on SRPK2, 73%.
`O=C(CN1CCOCC1)N[C@H]1CC[C@H](Nc2cc(Cl)nn3c(-c4ccc5[nH]ncc5c4)cnc23)CC1` [compound 26]: the remaining binding at 1 µM at MARK4 turned out to be 95%; in assay [1] it was 28%; at PHKG1, 17%; on TGFBR1, 100%; at PIK3CG it was 100%; on GRK4, 79%. The remaining binding at 1 µM at TEC worked out at 97%; on SRPK2, 79%.
`CN1CCC(CNc2cc(Cl)nn3c(-c4cc5nc(Nc6ccccc6)[nH]c5cc4F)cnc23)CC1` [compound 31, 6-Chloro-3-(6-fluoro-2-(phenylamino)-1H-benzo[d]imidazol-5-yl)-N-((1-methylpiperidin-4-yl)methyl)imidazo[1,2-b]pyridazin-8-amine]: the remaining binding at 1 µM came out at 93% on MARK4; 63% in assay [1]; 92% on PHKG1; 92% on TGFBR1; 100% at PIK3CG; 100% on GRK4. The remaining binding at 1 µM worked out at 88% on TEC and 93% on SRPK2.
